Laboratory results published in patent US8962608B2, “Cycloalkylnitrile pyrazole carboxamides as janus kinase inhibitors” (Merck Sharp & Dohme Corp., priority 2011, dated 2015).

Assays:
[1] = target: JAK1 (recombinant purified GST-tagged catalytic domain) (Homo sapiens (Human), UniProt P23458); test: biochemical;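 further: biochemical assay with HTRF read-out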
[2] = target: JAK2 (recombinant purified GST-tagged catalytic domain) (Homo sapiens (Human), UniProt O60674); test: biochemical;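 further: biochemical JAK kinase assay with HTRF detection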
Chain of JAK2 (recombinant purified GST-tagged catalytic domain) (O60674 849-1124): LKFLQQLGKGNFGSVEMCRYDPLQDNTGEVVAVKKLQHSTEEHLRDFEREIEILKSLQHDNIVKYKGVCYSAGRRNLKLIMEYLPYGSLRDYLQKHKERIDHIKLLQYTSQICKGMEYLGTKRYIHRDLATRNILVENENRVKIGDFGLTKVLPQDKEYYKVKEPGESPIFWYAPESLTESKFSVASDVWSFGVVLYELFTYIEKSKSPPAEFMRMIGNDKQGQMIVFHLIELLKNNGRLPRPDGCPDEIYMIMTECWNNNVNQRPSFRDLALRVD

Chain of JAK1 (recombinant purified GST-tagged catalytic domain) (P23458 875-1153): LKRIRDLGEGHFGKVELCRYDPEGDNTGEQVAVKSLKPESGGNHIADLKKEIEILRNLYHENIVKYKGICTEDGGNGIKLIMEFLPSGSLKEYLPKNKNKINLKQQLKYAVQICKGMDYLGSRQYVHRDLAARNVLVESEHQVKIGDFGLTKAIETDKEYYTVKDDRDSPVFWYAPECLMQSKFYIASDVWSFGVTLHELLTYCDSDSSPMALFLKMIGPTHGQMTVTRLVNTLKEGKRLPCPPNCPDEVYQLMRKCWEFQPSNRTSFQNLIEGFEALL

Row | SMILES | IC50 [1] [nM] | IC50 [2] [nM]
1 | N#C[C@H]1C[C@H](O)CC[C@@H]1n1cc(C(N)=O)c(Nc2ccc(C(F)F)nc2)n1 (single isomer, unassigned) [Example 25-16, 1-[(1S,2S,4R or 1R,2R,4S)-2-cyano-4-hydroxycyclohexyl]-3-{[6-(difluoromethyl)pyridin-3-yl]amino}-1H-pyrazole-4-carboxamide] | 3 | 10
2 | N#C[C@H]1C[C@H](O)CC[C@@H]1n1cc(C(N)=O)c(Nc2ccc(Cl)c(Cl)c2)n1 (single isomer, unassigned) [Example 25-6, 1-[(1S,2S,4R or 1R,2R,4S)-2-cyano-4-hydroxycyclohexyl]-3-[(3,4-dichlorophenyl)amino]-1H-pyrazole-4-carboxamide] | 3 | 20
3 | N#C[C@H]1CCC[C@H](O)C1n1cc(C(N)=O)c(Nc2ccccc2)n1 (mixture of isomers) [Example 2-7, 1-[(1R,2S,6S and 1S,2R,6R)-2-cyano-6-hydroxycyclohexyl]-3-(phenylamino)-1H-pyrazole-4-carboxamide] | 170 | 320
4 | N#C[C@H]1C[C@H](O)CCC1n1cc(C(N)=O)c(Nc2ccc(S(=O)(=O)C(F)F)cc2)n1 (mixture of isomers) [Example 14, 1-[(1S,2S,4R and 1R,2R,4S)-2-Cyano-4-hydroxycyclohexyl]-3-({4-[(difluoromethyl)sulfonyl]phenyl}amino)-1H-pyrazole-4-carboxamide] | 0.32 | 3
5 | N#C[C@H]1CCCC[C@@H]1n1cc(C(N)=O)c(Nc2ccc(Cl)cc2)n1 (single isomer, unassigned) [Example 17-108, 3-[(4-chlorophenyl)amino]-1-[(1S,2S or 1R,2R)-2-cyanocyclohexyl]-1H-pyrazole-4-carboxamide] | 8 | 120
6 | N#C[C@H]1C[C@@H](N2CCC2)CC[C@@H]1n1cc(C(N)=O)c(Nc2ccc(C(F)(F)F)cc2)n1 (single isomer, unassigned) [Example 28-1, 1-((1S,2S,4S or 1R,2R,4R)-4-(azetidin-1-yl)-2-cyanocyclohexyl)-3-((4-(trifluoromethyl)phenyl)amino)-1H-pyrazole-4-carboxamide] | 0.4 | 23
7 | N#C[C@H]1C[C@H](O)CCC1n1cc(C(N)=O)c(Nc2ccccc2)n1 (mixture of isomers) [Example 2-2, 1-[(1S,2S,4R and 1R,2R,4S)-2-cyano-4-hydroxycyclohexyl]-3-(phenylamino)-1H-pyrazole-4-carboxamide] | 6 | 70
8 | CC(C)(C)OC(=O)NC1CC[C@@H](C#N)C(n2cc(C(N)=O)c(Nc3ccc(F)cc3)n2)C1 (mixture of isomers) [Example 11-4, tert-butyl [(3R,4S and 3S,4R)-3-{4-carbamoyl-3-[(4-fluorophenyl)amino]-1H-pyrazol-1-yl}-4-cyanocyclohexyl]carbamate] |  | 20
9 | CCS(=O)(=O)c1ccc(Nc2nn(C3CCCC[C@@H]3C#N)cc2C(N)=O)cc1 (mixture of isomers) [Example 17-10, 1-[(1S,2S and 1R,2R)-2-cyanocyclohexyl]-3-{[4-(ethylsulfonyl)phenyl]amino}-1H-pyrazole-4-carboxamide] |  | 4
10 | N#Cc1cncc(Nc2nn([C@H]3CCCC[C@@H]3C#N)cc2C(N)=O)c1 (single isomer, unassigned) [Example 17-74, 1-[(1R,2R or 1S,2S)-2-cyanocyclohexyl]-3-[(5-cyanopyridin-3-yl)amino]-1H-pyrazole-4-carboxamide] |  | 49
11 | N#C[C@@H]1CCCCC1n1cc(C(N)=O)c(Nc2ccccc2)n1 (mixture of isomers) [Example 1-3, 1-[(1S,2R and 1R,2S)-2-cyanocyclohexyl]-3-(phenylamino)-1H-pyrazole-4-carboxamide] |  | 138

Further lines, results first:

Row | IC50 [1] [nM] | IC50 [2] [nM] | SMILES
12 | 5 | 36 | N#C[C@H]1C[C@@H](NC2(C(F)(F)F)CC2)CC[C@@H]1n1cc(C(N)=O)c(Nc2ccc(Cl)cc2)n1 (single isomer, unassigned) [Example 28-226, 3-[(4-chlorophenyl)amino]-1-[(1S,2S,4S or 1R,2R,4R)-2-cyano-4-{[1-(trifluoro-methyl)cyclopropyl]a-mino}cyclohexyl]-1H-pyrazole-4-carboxamide]
13 | 3 | 20 | CC(C)(O)[C@H]1CC[C@H](n2cc(C(N)=O)c(Nc3ccc(Cl)cc3)n2)[C@@H](C#N)C1 (single isomer, unassigned) [Example 36-2, 3-(4-chlorophenylamino)-1-((1R,2R,4R or 1S,2S,4S)-2-cyano-4-(2-hydroxypropan-2-yl)cyclohexyl)-1H-pyrazole-4-carboxamide]
14 | 0.4 | 23 | CC(C)(C)N[C@@H]1CC[C@H](n2cc(C(N)=O)c(Nc3ccc([C@H](O)C(F)(F)F)cc3)n2)[C@@H](C#N)C1 (single isomer, unassigned) [Example 28-52, 1-[(1S,2S,4R or 1R,2R,4S)-4-(tert-butylamino)-2-cyanocyclohexyl]-3-({4-[(1S or 1R)-2,2,2-trifluoro-1-hydroxyethyl]phenyl}amino)-1H-pyrazole-4-carboxamide]
15 | 2 | 136 | N#C[C@@H]1C[C@@H](NC2CCC2)CC[C@H]1n1cc(C(N)=O)c(Nc2ccc(C(F)(F)F)cc2)n1 (single isomer, unassigned) [Example 30-18, 1-[(1R,2R,4S or 1S,2S,4R)-2-cyano-4-(cyclobutyl-amino)cyclohexyl]-3-{[4-(trifluoromethyl)phenyl]amino}-1H-pyrazole-4-carboxamide]
16 |  | 11 | CC(N[C@H]1CC[C@H](n2cc(C(N)=O)c(Nc3ccc(S(=O)(=O)C(F)(F)F)cc3)n2)[C@@H](C#N)C1)C1CC1 (single isomer, unassigned) [Example 28-176, 1-[(1S,2S,4S or 1R,2R,4R)-2-cyano-4-{[(1R)-1-cyclopropylethyl]amino}cyclo-hexyl]-3-({4-[(trifluoromethyl)sulfonyl]phen-yl}amino)-1H-pyrazole-4-carboxamide]
17 |  | 21 | CC1(CN[C@@H]2CC[C@H](n3cc(C(N)=O)c(Nc4ccc(C(F)(F)F)cc4)n3)[C@@H](C#N)C2)COC1 (single isomer, unassigned) [Example 28-16, 1-[(1S,2S,4R or 1R,2R,4S)-2-cyano-4-{[(3-methyloxetan-3-yl)methyl]amino}cyclohexyl]-3-{[4-(trifluoromethyl)phenyl]amino}-1H-pyrazole-4-carboxamide]
18 |  | 28 | N#C[C@H]1CC(N2CCC[C@H]2CF)CC[C@@H]1n1cc(C(N)=O)c(Nc2ccc(S(=O)(=O)C(F)(F)F)cc2)n1 (single isomer, unassigned) [Example 28-157, 1-{(1S,2S or 1R,2R)-2-cyano-4-[(2S)-2-(fluoromethyl)pyrrolidin-1-yl]cyclohexyl}-3-({4-[(trifluoro-methyl)sulfonyl]phenyl}amino)-1H-pyrazole-4-carboxamide]
19 |  | 53 | N#C[C@H]1C[C@H](NCC(F)F)CC[C@@H]1n1cc(C(N)=O)c(Nc2ccnc(F)c2)n1 (single isomer, unassigned) [Example 28-106, 1-{(1S,2S,4R or 1R,2R,4S)-2-cyano-4-[(2,2-difluoroethyl)amino]cyclohexyl}-3-[(2-fluoropyridin-4-yl)amino]-1H-pyrazole-4-carboxamide]
